Reference: ChEMBL document CHEMBL1201862, “PubChem BioAssay data set” (2004)
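Following 48 hours of exposure in 96-well plates, responses at five concentrations were used to interpolate endpoints linearly. GI50 = concentration required for 50% inhibition of growth.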 The source made the active and inactive calls. Rule as the data show it: active = GI50 up to about 1.1 µM and inactive = higher.

What was measured:
Test in all cases: NCI tumour cell line growth inhibition, 48 h
RXF 393 = test system: RXF 393
OVCAR-8 = test system: OVCAR-8
HCT-116 = test system: HCT-116
SNB-75 = test system: SNB-75
HCT-15 = test system: HCT-15
SK-MEL-28 = test system: SK-MEL-28
NCI-H23 = test system: NCI-H23
SF-295 = test system: SF-295
COLO 205 = test system: COLO 205
CAKI-1 = test system: CAKI-1
HT-29 = test system: HT-29
SR = test system: SR
UO-31 = test system: UO-31
SW-620 = test system: SW-620
HOP-62 = test system: HOP-62
HL-60 = test system: HL-60
Malme-3M = test system: Malme-3M

Row | SMILES | GI50 (RXF 393) | GI50 (OVCAR-8) | GI50 (HCT-116) | GI50 (SNB-75) | GI50 (HCT-15) | GI50 (SK-MEL-28) | GI50 (NCI-H23) | GI50 (SF-295) | GI50 (COLO 205) | GI50 (CAKI-1) | GI50 (HT-29) | GI50 (SR) | GI50 (UO-31) | GI50 (SW-620) | GI50 (HOP-62) | GI50 (HL-60) | GI50 (Malme-3M)
1 | CC1(n2nc(-c3ccccc3)n(-c3ccccc3)c2=O)CSC1 | > 100 µM (inactive) | > 100 µM (inactive) | > 100 µM (inactive) | > 100 µM (inactive) | > 100 µM | > 100 µM (inactive) | > 100 µM (inactive) | > 100 µM (inactive) | > 100 µM (inactive) | > 100 µM (inactive) | > 100 µM (inactive) | > 100 µM (inactive) | > 100 µM (inactive) | > 100 µM (inactive) | > 100 µM (inactive) | > 100 µM (inactive) | –
2 | Clc1ccc2c(Cl)nc(-c3ccccc3)nc2c1 | 23.4 µM (inactive) | 34 µM (inactive) | 27.4 µM (inactive) | 17.7 µM (inactive) | – | 32.2 µM (inactive) | 10.7 µM (inactive) | 25.2 µM (inactive) | 41.2 µM (inactive) | 23.6 µM (inactive) | 26.4 µM (inactive) | 25.2 µM (inactive) | 24.5 µM (inactive) | 33.9 µM (inactive) | 53.2 µM (inactive) | 20.2 µM (inactive) | 24.3 µM (inactive)
3 | COc1cc(OC)c(C#N)c(OC)c1C | > 100 µM (inactive) | > 100 µM (inactive) | – | – | – | > 100 µM (inactive) | > 100 µM (inactive) | > 100 µM (inactive) | – | > 100 µM (inactive) | > 100 µM (inactive) | > 100 µM (inactive) | > 100 µM (inactive) | > 100 µM (inactive) | > 100 µM (inactive) | > 100 µM (inactive) | > 100 µM (inactive)
4 | O=CC1CCCc2ccccc21 (stereo not drawn) | > 100 µM (inactive) | > 100 µM (inactive) | > 50.1 µM (inactive) | > 100 µM (inactive) | > 51.5 µM | > 100 µM (inactive) | > 100 µM (inactive) | > 100 µM (inactive) | > 42.7 µM (inactive) | > 100 µM (inactive) | > 100 µM (inactive) | > 100 µM (inactive) | > 100 µM (inactive) | > 40.4 µM (inactive) | > 100 µM (inactive) | > 63 µM (inactive) | > 100 µM (inactive)
5 | CN(C)CCC(/C=C/c1ccccc1)=N\Nc1c(F)c(F)c(F)c(F)c1F | 11.3 µM (inactive) | 53.8 µM (inactive) | > 100 µM (inactive) | 9.82 µM (inactive) | 56.8 µM | > 100 µM (inactive) | > 100 µM (inactive) | 28.6 µM (inactive) | > 100 µM (inactive) | – | 27 µM (inactive) | 28.4 µM (inactive) | 76.4 µM (inactive) | > 100 µM (inactive) | > 100 µM (inactive) | 16 µM (inactive) | 38 µM (inactive)
6 | O=C1CCC(=O)c2cc(Br)ccc2N1 | > 74.1 µM (inactive) | > 100 µM (inactive) | > 40.8 µM (inactive) | > 100 µM (inactive) | > 100 µM | > 100 µM (inactive) | > 100 µM (inactive) | > 100 µM (inactive) | > 100 µM (inactive) | > 100 µM (inactive) | > 100 µM (inactive) | 26.4 µM (inactive) | > 100 µM (inactive) | > 57.8 µM (inactive) | > 100 µM (inactive) | > 100 µM (inactive) | > 100 µM (inactive)
7 | O=P(Nc1cccc(Cl)c1)(Oc1ccccc1)N(CCCl)CCCl (stereo not drawn) | – | 17 µM (inactive) | 13.1 µM (inactive) | 15.6 µM (inactive) | 13.5 µM | 16.6 µM (inactive) | 16.5 µM (inactive) | 14.5 µM (inactive) | 15.9 µM (inactive) | 13.9 µM (inactive) | 14.8 µM (inactive) | 31.6 µM (inactive) | 85.9 µM (inactive) | 16.7 µM (inactive) | 16.6 µM (inactive) | 70.6 µM (inactive) | 14.9 µM (inactive)
8 | COc1ccc(C2C(Cl)C(=O)N2NC(=O)c2ccc(N)cc2)cc1 (stereo not drawn) | – | > 100 µM (inactive) | > 100 µM (inactive) | > 100 µM (inactive) | > 100 µM | > 100 µM (inactive) | > 100 µM (inactive) | > 100 µM (inactive) | > 100 µM (inactive) | > 100 µM (inactive) | > 100 µM (inactive) | – | > 100 µM (inactive) | > 100 µM (inactive) | > 100 µM (inactive) | > 100 µM (inactive) | > 100 µM (inactive)
9 | Cc1ccc2c(c1CCCC(C)(C)O)C(=O)C(O)=C(C(C)C)C2=O | 53.5 µM (inactive) | 62.5 µM (inactive) | 60.5 µM (inactive) | > 100 µM (inactive) | 41.9 µM | > 100 µM (inactive) | 59.3 µM (inactive) | 81.7 µM (inactive) | > 100 µM (inactive) | > 100 µM (inactive) | > 100 µM (inactive) | 41.2 µM (inactive) | 76 µM (inactive) | > 100 µM (inactive) | – | 46.6 µM (inactive) | > 100 µM (inactive)
10 | CC1(c2ccc(Cl)cc2)C2C(=O)NC(=O)C1C(=O)NC2=O (stereo not drawn) | > 100 µM (inactive) | > 100 µM (inactive) | – | > 100 µM (inactive) | > 100 µM | > 100 µM (inactive) | > 100 µM (inactive) | > 100 µM (inactive) | > 100 µM (inactive) | > 100 µM (inactive) | > 100 µM (inactive) | – | > 100 µM (inactive) | > 100 µM (inactive) | > 100 µM (inactive) | > 100 µM (inactive) | > 100 µM (inactive)
11 | CCOC(=O)CC(=O)ON(C)C(=O)Cc1ccccc1 | – | > 100 µM (inactive) | > 100 µM (inactive) | – | > 100 µM | – | > 100 µM (inactive) | > 100 µM (inactive) | > 100 µM (inactive) | > 100 µM (inactive) | > 100 µM (inactive) | > 100 µM (inactive) | > 100 µM (inactive) | > 100 µM (inactive) | > 100 µM (inactive) | > 100 µM (inactive) | > 100 µM (inactive)
12 | CC(C)=CC(=O)OC1C2C(C)C(=O)OC2C(O)C(C)C2C=CC(=O)C21C (stereo not drawn) | 1.28 µM (inactive) | 1.79 µM (inactive) | 1.66 µM (inactive) | 2.72 µM (inactive) | 2 µM | 1.34 µM (inactive) | 2.71 µM (inactive) | 6.14 µM (inactive) | 1.87 µM (inactive) | 3.24 µM (inactive) | 3.21 µM (inactive) | – | 6.03 µM (inactive) | 1.68 µM (inactive) | 8.02 µM (inactive) | 0.826 µM (active) | 3.58 µM (inactive)
13 | C[P+](C)(C)c1ccccc1 | > 100 µM (inactive) | > 100 µM (inactive) | > 100 µM (inactive) | > 100 µM (inactive) | > 100 µM | > 100 µM (inactive) | > 100 µM (inactive) | > 100 µM (inactive) | > 100 µM (inactive) | > 100 µM (inactive) | > 100 µM (inactive) | > 100 µM (inactive) | > 100 µM (inactive) | > 100 µM (inactive) | > 100 µM (inactive) | > 100 µM (inactive) | > 100 µM (inactive)
14 | Cc1cc(N(CCC#N)CCC#N)ccc1/N=N/c1cccc(C(=O)O)c1 | > 100 µM (inactive) | > 100 µM (inactive) | – | 34.1 µM (inactive) | > 100 µM | 97.7 µM (inactive) | > 100 µM (inactive) | > 100 µM (inactive) | > 100 µM (inactive) | > 100 µM (inactive) | > 100 µM (inactive) | – | > 100 µM (inactive) | > 100 µM (inactive) | > 100 µM (inactive) | > 100 µM (inactive) | 83 µM (inactive)
15 | CC(C)CCCCCCCCCCCCC(=O)NCC(=O)NC1C(C)OC(Nc2ncnc3c2ncn3C)C(O)C1O (stereo not drawn) | 2.89 µM (inactive) | 4.27 µM (inactive) | 1.54 µM (inactive) | 2.33 µM (inactive) | > 100 µM | > 100 µM (inactive) | 9.42 µM (inactive) | 6.4 µM (inactive) | 3.81 µM (inactive) | 0.805 µM (active) | 4.2 µM (inactive) | – | 1.9 µM (inactive) | 5.37 µM (inactive) | 2.21 µM (inactive) | 0.485 µM (active) | 2.32 µM (inactive)
16 | COc1ccc(/C(Cl)=C(\CN(C)C)c2ccc(OC)c(OC)c2)cc1OC.[B] | 15.7 µM (inactive) | > 100 µM (inactive) | 38.8 µM (inactive) | 2.5 µM (inactive) | > 100 µM | – | 95.1 µM (inactive) | 12.7 µM (inactive) | – | > 100 µM (inactive) | > 100 µM (inactive) | > 100 µM (inactive) | > 100 µM (inactive) | > 100 µM (inactive) | 24.3 µM (inactive) | > 100 µM (inactive) | –
17 | COc1ccc(C2Oc3cc(OC)c(O)cc3[C@@H]2C)cc1 (stereo partly drawn) | 28.2 µM (inactive) | 23.2 µM (inactive) | 12.8 µM (inactive) | 3.08 µM (inactive) | 16.5 µM | 56.8 µM (inactive) | 23.6 µM (inactive) | > 100 µM (inactive) | > 100 µM (inactive) | 29.3 µM (inactive) | 40.7 µM (inactive) | – | 13.8 µM (inactive) | 17.1 µM (inactive) | > 100 µM (inactive) | 18.2 µM (inactive) | 78 µM (inactive)
18 | O=C(c1ccc(O)cc1O)C1C(c2ccc(O)cc2)OC(c2ccc(O)cc2)C1C(=O)c1ccc(O)cc1O (stereo not drawn) | 25.5 µM (inactive) | 21.8 µM (inactive) | – | 16.6 µM (inactive) | – | 19.4 µM (inactive) | 30 µM (inactive) | 25.5 µM (inactive) | – | 45.6 µM (inactive) | 34.2 µM (inactive) | – | 18.7 µM (inactive) | 30.6 µM (inactive) | 5.26 µM (inactive) | 17.8 µM (inactive) | 14.2 µM (inactive)
